Test results published in US6001810A, “Methods for treating retroviral infection” (Eli Lilly and Company, priority 1990, dated 1999).
Non-standard residues stand in square brackets, D forms with d. Residues, ends and D or L forms follow the SMILES beside them. Phe(4-NH2) = Nc1ccc(C[C@H](N)C(=O)O)cc1; 1Nal = N[C@@H](Cc1cccc2ccccc12)C(=O)O; Sta = CC(C)C[C@H](N)[C@@H](O)CC(=O)O

How the values were obtained:
HIV-1 protease = molecular target: T1, HIV-1 protease (Human immunodeficiency virus type 1 group M subtype B, UniProt P04585); experiment: HIV-1 protease inhibition assay (gag precursor maturation, Western blot); format: biochemical
T1 construct: a gene encoding the mature HIV-1 protease of 99 amino acids; last 58 codons of bovine growth hormone, fused behind the first 144 amino acids of reverse transcriptase in the expressed precursor (C); made in house; host or cells: Escherichia coli K12 L507/pHP10D (NRRL B-18560), crude lysate
Procedure: A 100 μl control reaction was established containing 10 to 20 μl of crude protease, about 2 μl of the gag supernatant and final concentrations of 50 mM MES Buffer (pH 5.5), 1 mM DTT and 25 mM NaCl. Inhibition assays were performed by pre-incubating the crude protease with an inhibitory compound at room temperature for about 30 minutes before adding the gag supernatant to the reaction. Both the control and the experimental reactions were incubated from three to sixteen hours at 37° C. The reactions were then electrophoresed and blotted onto nitrocellulose filters. Monoclonal antibodies which recognize epitopes on p24 and p17 viral proteins were contacted with the filter then visualized using standard biotinylation or radionuclear techniques. Compounds which prevented the maturation of the gag polypeptide into mature viral proteins p24 and p17 were then ranked according to their HIV-1 protease inhibitory activity.
About 10 to 20 μl of the crude protease lysate was mixed with about 2 μl of the gag supernatant. The mixture was then brought to a total volume of 100 μl by the addition of distilled water, MES buffer (2-[N-Morpholino]ethanesulfonic acid) (pH 5.5 to a total concentration of 50 mM), DTT (dithiolthreitol) (to a total concentration of 1 mM) and NaCl (to a total concentration of 25 mM). This reaction mixture was mixed gently then incubated from 3 hours to overnight at 37° C.
Next, about 25 μl of the reaction was mixed with loading buffer and subjected to polyacrylamide gel electrophoresis on a 12.5% Laemmli gel under reducing conditions. The proteins were transferred onto a nitrocellulose filter using standard "Western Blot" electrophoresis at 500 mAmps for 35 minutes at room temperature. The filter was air-dried, then non-specific immunoreaction was blocked by washing the filter for 30 minutes at 4° C. in a solution of 3% non-fat dry milk powder in phosphate buffered saline (PBS).
Monoclonal antibodies against p17 and/or p24 (available from DuPont, Wilmington, Del.) were added to about 40 ml of the 3% milk/PBS solution to a final concentration of 2 μg/ml. […] The filter then was removed and washed 5 times with PBS, then the maturation of the gag gene was determined by reaction with I^125 -labeled protein A or by reaction with biotinylated anti-mouse IgG antibodies (Vecta Stain®). […]
Following the procedure, it is simple to determine the activity of the HIV-1 protease encoded on plasmid pHP10D and produced in E. coli cells. When the protease is fully active, the gag protein, encoded by plasmid pHGAG and produced in E. coli, is cleaved from the precursor gag form into mature p24 and p17 proteins, which are readily measured by their presence relative to the precursor protein. […]

MT-2 cells = format: cell-based
Procedure: (§1) Quantitative evaluation of the viral inhibition were performed on the T-cell lymphoblastoid cell lines MT-2 (Harada et al., 1985, Science 229:563-566) and CEM (Nara and Fischinger, 1988, Nature 332:469-470). The cells were infected with the HTLV-IIIB strain of HIV-1 from the supernatant fluid of infected human T-lymphocyte cell line H9 (Popovic, M. et al., 1984, Science 224:497-500). Each of these three cell lines are publicly available from the National Institutes of Health (NIH) AIDS Research and Reference Reagent Program. The H9/HTLC-IIIB cell line is available under catalogue number 231, while CEM cell line is available under catalogue number 117 and the MT-2 cell line is available under the catalogue number 237. MT-2 and CEM cells were grown in RPMI 1640 medium supplemented with 10% (v/v) fetal calf serum, 100 U/ml penicillin, 100 μg/ml streptomycin and 25 mM HEPEs buffer. H9 cells were grown in the same medium except 20% fetal calf serum was used. The peptides were diluted in the medium used for MT-2 and CEM cells. Cell cultures were maintained in disposable tissue culture labware at 37° C. in a humidified atmosphere of 5% CO2 in air.
(§2) The inhibitors were dissolved in DMSO at 40 mg/ml or sterile water at 2 mg/ml, then dilutions were made in medium. The dilutions were added to micro-titer plates in 100 μl/well aliquots so that the high drug concentration for each screen was 100 μg/ml after the addition of cells to the well.
(§3) Susceptible MT-2 and CEM cells were grown and the cell population determined by a trypan blue viable cell count. The desired total number of cells were placed in a sterile, disposable 50 ml conical centrifuge tube and virus was added to give an MOI (Multiplicity of Infection) of 0.03 TCID50 /cell (Tissue Culture Infectious Dose) on MT-2 cells and approximately 0.12 TCID50 /cell on CEM cells. Fresh medium was added to adjust the cell density to 1×10^5 cells/ml, then the virus-cell suspension was incubated at 37° C. for 1 to 2 hours until plating. Uninfected controls cell were prepared in the same manner but without the addition of virus. Infected and uninfected cells were added to plates in 100 μl/well aliquots to give a starting cell number of 1×10^4 cells/well. The plates were incubated for seven days in a humidified atmosphere of 5% CO2 in air.
Reagents for colorimetric evaluation of cell viability were prepared by mixing the tetrazolium reagent, XTT, and phenazine methosulfate (PMS) to final concentrations of 200 μg/ml and 0.02 mM, respectively. […] The plates were read with the sealers in place in a Vmax Plate Reader® at 450 nm and 650 nm. The cytopathic effect (CPE) and percentage of cell viability were then calculated.

CEM cells = format: cell-based
Procedure: as §1, §2, §3
Reagents for colorimetric evaluation of cell viability were prepared by mixing the tetrazolium reagent, XTT, and phenazine methosulfate (PMS) to final concentrations of 200 μg/ml and 0.02 mM, respectively. Fifty microliters of the XTT-PMS solution was added to each well of the microtiter plates, then the plates were incubated in the CO2 incubator for another four hours. The lids were removed from the plates and replaced with adhesive plate sealers. The plates were read with the sealers in place in a Vmax Plate Reader® at 450 nm and 650 nm. The cytopathic effect (CPE) and percentage of cell viability were then calculated.
The activity and cytotoxicity of several other peptides were also assayed in CEM cells using the same procedure as described above. These assays also included toxicity and activity levels of both 25% and 50%.

## CC(=O)N[C@H](C(=O)N[C@@H](CC(C)C)[C@@H](O)CC(=O)N[C@@H](CC(C)C)C(=O)N[C@@H](Cc1ccccc1)C(N)=O)C(C)C [Ac-Val-Statine-Leu-Phe--NH2] (Ac-V[Sta]LF-NH2)
HIV-1 protease
  Inhibitory activity against the HIV protease (in words): inactive

## CC(C)C[C@H](NC(=O)C[C@H](O)[C@H](CC(C)C)NC(=O)[C@@H](NC(=O)[C@H](Cc1ccccc1)NC(=O)[C@@H]1CCCN1C(=O)[C@H](Cc1ccc(N)cc1)NC(=O)[C@@H]1CCCN1)C(C)C)C(=O)N[C@@H](Cc1ccccc1)C(=O)N[C@@H](Cc1ccc(N)cc1)C(N)=O [P-1, H-Pro paF Pro Phe Val Statine Leu Phe paF NH2] (H-P[Phe(4-NH2)]PFV[Sta]LF[Phe(4-NH2)]-NH2)
MT-2 cells
  MTC50 (minimum cytotoxic drug concentration that reduces cell viability to 50%): > 100 µg/mL
CEM cells
  MTC50 (minimum cytotoxic drug concentration that reduces cell viability to 50%): > 100 µg/mL

## CC(=O)N[C@@H](Cc1cccc2ccccc12)C(=O)N1CCC[C@H]1C(=O)N[C@@H](Cc1ccccc1)C(=O)N[C@H](C(=O)N[C@@H](CC(C)C)[C@@H](O)CC(=O)N[C@@H](CC(C)C)C(=O)N[C@@H](Cc1ccccc1)C(N)=O)C(C)C [P-7, Ac NA Pro Phe Val Statine Leu Phe NH2] (Ac-[1Nal]PFV[Sta]LF-NH2)
MT-2 cells
  MTC50 (minimum cytotoxic drug concentration that reduces cell viability to 50%): 24.4 µg/mL
CEM cells
  IC25 (Table V): > 10 µg/mL
  MTC50 (minimum cytotoxic drug concentration that reduces cell viability to 50%): 21 µg/mL
  TC50 (concentration that reduced cell viability by 50%): > 10 µg/mL

## CC(C)C[C@H](NC(=O)C[C@H](O)[C@H](CC(C)C)NC(=O)[C@@H](NC(=O)[C@H](Cc1ccccc1)NC(=O)[C@@H]1CCCN1C(=O)[C@@H](N)Cc1c[nH]cn1)C(C)C)C(=O)N[C@@H](Cc1ccccc1)C(=O)N[C@@H](Cc1ccc(N)cc1)C(N)=O [P-15, H-His Pro Phe Val Statine Leu Phe paF NH2] (H-HPFV[Sta]LF[Phe(4-NH2)]-NH2)
MT-2 cells
  MTC50 (minimum cytotoxic drug concentration that reduces cell viability to 50%): > 100 µg/mL
CEM cells
  MTC50 (minimum cytotoxic drug concentration that reduces cell viability to 50%): > 100 µg/mL

## H-Pro His Pro Phe His AVA Ile Phe NH2 [P-25]
HIV-1 protease; peptide concentration added 10^-4 M
  Relative Inhibition of HIV-1 Protease Activity (10^-4 M): -
HIV-1 protease; peptide concentration added 10^-5 M
  Relative Inhibition of HIV-1 Protease Activity (10^-5 M): -
HIV-1 protease; peptide concentration added 10^-6 M
  Relative Inhibition of HIV-1 Protease Activity (10^-6 M): -
